Data taken from US11555042B2, “Macrocyclic compounds as TRK kinases inhibitors” (FOCHON BIOSCIENCES, LTD., priority 2018, dated 2023).

Legend:
Format in all cases: cell-based
[1] = tested on: KM12 cells; assay: KM12 cells proliferation inhibition (MTS), mechanism-based assay for TRK; conditions: Homo sapiens, KM12, 72 h
Excerpt: (§1) MTS testing kit was purchased from Promega (Madison, Wis., USA). The RPMI-1640, Fetal bovine serum and Penicillin-Streptomycin were purchased from Gibco (San Francisco, Calif., USA). Dimethyl sulfoxide (DMSO) and Puromycin were purchased from Sigma (St. Louis., Mo., USA). Mouse interleukin-3 (IL-3) was purchased from Cell signaling Technology (Boston, Mass., USA).
To investigate whether a compound is able to inhibit the activity of TRK in cells, a mechanism-based assay using KM12 cells was developed. In this assay, inhibition of TRK was detected by the inhibition of KM12 cells proliferation. KM12 cells were cultured in culture flasks to 40-80% confluence in RPMI-1640 plus 10% fetal bovine serum. Cells were collected and plated onto 96-well plates at 1000 cells/well. Plates were incubated at 37° C., with 5% CO2 for 4 h. Compounds were added to the plates, the final compound concentrations were […], 123.5, 41.2, 13.7, 4.6 and 1.5 nM. Place plates at 37° C., with 5% CO2 for KM12 cells 72 h. 20 μl MTS/100 μl medium mixture solution were added to each well and incubate the plates for exactly 2 h. Stop the reaction by adding 25 μl 10% SDS per well. Measure absorbance at 490 nm and 650 nm (reference wavelength). IC50 was calculated using GraphPad Prism 5.0.

[2] = biological target: T1, TPM3-TRKA (Homo sapiens, UniProt P04629); assay: Engineered Ba/F3 cell proliferation inhibition (MTS), TPM3-TRKA; conditions: 72 h
T1 construct: TPM3 (tropomyosin alpha-3, P06753) fusion partner; expressed in transfected cells; host or cells: Ba/F3; the other entry of the earlier key: TPM3 (P06753, Tropomyosin alpha-3 chain)
T1 sequence (P04629 510-796 limits assumed): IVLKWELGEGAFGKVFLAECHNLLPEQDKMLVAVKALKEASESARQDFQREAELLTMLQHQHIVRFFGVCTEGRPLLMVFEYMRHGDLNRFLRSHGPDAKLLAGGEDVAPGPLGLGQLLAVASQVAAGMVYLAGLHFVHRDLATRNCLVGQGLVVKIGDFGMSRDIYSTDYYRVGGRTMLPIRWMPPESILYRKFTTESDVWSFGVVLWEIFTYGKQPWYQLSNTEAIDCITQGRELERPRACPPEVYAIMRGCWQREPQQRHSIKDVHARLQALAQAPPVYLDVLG
Excerpt: as §1
(§2) To investigate whether a compound is able to inhibit the activity of TRK fusion mutation in cells, a mechanism-based assay using engineered Ba/F3 cell lines stably overexpressing oncogenic rearrangement or gene mutation of TRK (TPM3-TRKA, TPM3-TRKA-G595R, AFAP1-TRKB, ETV6-TRKC and ETV6-TRKC-G623R) were developed. In this assay, inhibition of TRK fusion mutation was detected by the cell proliferation inhibition of engineered Ba/F3 cells. Engineered Ba/F3 cells were cultured in culture flasks to 40-80% confluence in RPMI-1640 supplemented with 10% fetal bovine serum, 2 ug/mL puromycin. Cells were collected and plated onto 96-well plates at desired cell density (Ba/F3-TPM3-TRKA: 3×10^4/mL, Ba/F3-TPM3-TRKA-G595R: 1×10^5/mL, Ba/F3-AFAP1-TRKB: 1×10^5/mL, Ba/F3-ETV6-TRKC: 3×10^4/mL, Ba/F3-ETV6-TRKC-G623R: 3×10^4/mL). Plates were incubated at 37° C., with 5% CO2 for 4 h. Compounds were then added to the plates with the final compound concentrations of 10000, 3333, 1111, […], 123, 41.2, 13.7, 4.6 and 1.5 nM. Plates were incubated at 37° C., with 5% CO2 for 72 h. A mixture of 20 μl MTS/100 μl medium were added to each well and the plates were incubated at 37° C., with 5% CO2 for exactly 2 h. The reaction was stopped by adding 25 μl of 10% SDS per well. The absorbance was measured at 490 nm and 650 nm (reference wavelength). IC50 was calculated using GraphPad Prism 5.0 software.

[3] = biological target: T2, TPM3-TRKA-G595R (Homo sapiens, UniProt P04629, G595R); assay: Engineered Ba/F3 cell proliferation inhibition (MTS), TPM3-TRKA-G595R; conditions: 72 h
T2 construct: TPM3 (tropomyosin alpha-3, P06753) fusion partner; expressed in transfected cells; host or cells: Ba/F3; the other entry of the earlier key: TPM3 (P06753, Tropomyosin alpha-3 chain)
T2 sequence (P04629 510-796 G595R limits assumed): as the sequence (P04629 510-796 limits assumed) above, with G86R counted along it
Excerpt: as §1, §2

[4] = biological target: T3, ETV6-TRKC-G623R (Homo sapiens, UniProt Q16288, G623R); assay: Engineered Ba/F3 cell proliferation inhibition (MTS), ETV6-TRKC-G623R; conditions: 72 h
T3 construct: fused on or other part: P41212 (Transcription factor ETV6)
T3 sequence (Q16288 whole entry G623R, the tested form may be a part): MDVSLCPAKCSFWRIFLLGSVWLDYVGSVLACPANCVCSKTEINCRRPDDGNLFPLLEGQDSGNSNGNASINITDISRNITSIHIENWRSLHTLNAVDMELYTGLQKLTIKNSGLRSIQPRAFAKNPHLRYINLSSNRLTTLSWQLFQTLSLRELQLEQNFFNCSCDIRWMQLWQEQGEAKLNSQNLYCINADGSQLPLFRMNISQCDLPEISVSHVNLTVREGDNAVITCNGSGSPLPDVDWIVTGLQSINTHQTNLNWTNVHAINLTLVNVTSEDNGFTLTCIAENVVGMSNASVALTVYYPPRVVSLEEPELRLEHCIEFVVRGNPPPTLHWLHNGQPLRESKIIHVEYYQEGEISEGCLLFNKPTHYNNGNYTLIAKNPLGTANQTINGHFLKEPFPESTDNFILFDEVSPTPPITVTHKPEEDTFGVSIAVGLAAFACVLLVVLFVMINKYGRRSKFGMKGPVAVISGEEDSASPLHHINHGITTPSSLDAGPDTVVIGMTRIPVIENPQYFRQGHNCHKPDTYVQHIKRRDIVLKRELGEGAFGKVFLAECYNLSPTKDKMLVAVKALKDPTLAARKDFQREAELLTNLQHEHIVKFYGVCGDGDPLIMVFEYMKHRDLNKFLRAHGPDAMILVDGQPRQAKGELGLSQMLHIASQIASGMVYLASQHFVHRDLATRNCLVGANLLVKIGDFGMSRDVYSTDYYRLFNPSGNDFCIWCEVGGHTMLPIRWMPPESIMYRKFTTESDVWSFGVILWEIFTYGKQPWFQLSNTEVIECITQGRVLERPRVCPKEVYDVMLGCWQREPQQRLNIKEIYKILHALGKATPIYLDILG
Excerpt: as §1, §2

CN1c2ccn3ncc(c3n2)C(=O)NC2(CC2)COc2ncc(F)cc2C12CC2 [Example 17, (3′E,4′E)-5′-fluoro-2′-methyldispiro[cyclopropane-1,3′-5-oxa-2,8-diaza-1(5,3)-pyrazolo[1,5-a]pyrimidina-4(3,2)-pyridinacyclononaphane-7′,1″-cyclopropan]-9′-one] was tested, and the IC50 [1] was 1 nM, the IC50 [2] was 1 nM and the IC50 [3] was 5 nM. The IC50 [4] was 1 nM.

C[C@@H]1CNC(=O)c2cnn3ccc(nc23)N2CC[C@H]3C[C@]32c2cc(F)ccc2O1 [Example 21, (1^3E,1^4E,2^1R,2^5S,5R)-3^5-fluoro-5-methyl-4-oxa-2^2,7-diaza-1(5,3)-pyrazolo[1,5-a]pyrimidina-2(2,1)-bicyclo[3.1.0]hexana-3(1,2)-benzenacyclooctaphan-8-one] showed an IC50 [1] of 1 nM, an IC50 [2] of 1 nM and an IC50 [4] of 1 nM.

In the case of O=C1NCCOc2ncc(F)cc2[C@@]23C[C@@H]2CCN3c2ccn3ncc1c3n2 [Example 23, (1^3E,1^4E,2^1R,2^5S)-35-fluoro-4-oxa-2^2,7-diaza-1(5,3)-pyrazolo[1,5-a]pyrimidina-3(3,2)-pyridina-2(2,1)-bicyclo[3.1.0]hexanacyclooctaphan-8-one], the IC50 [1] is reported as 1 nM, the IC50 [2] is reported as 1 nM and the IC50 [3] is reported as 4 nM. The IC50 [4] was 5 nM.

For C[C@H]1COc2ncc(F)cc2[C@@]23C[C@@H]2CCN3c2ccn3ncc(c3n2)C(=O)N1 [Example 28, (1^3E,1^4E,2^1R,2^5S,6S)-3^5-fluoro-6-methyl-4-oxa-2^2,7-diaza-1(5,3)-pyrazolo[1,5-a]pyrimidina-3(3,2)-pyridina-2(2,1)-bicyclo[3.1.0]hexanacyclooctaphan-8-one], the IC50 [1] was 1 nM, the IC50 [2] was 1 nM and the IC50 [4] was 6 nM.

C[C@H]1CCc2ncc(F)cc2[C@@]23C[C@@H]2CCN3c2ccn3ncc(c3n2)C(=O)N1 [Example 30, (1^3E,1^4E,2^1R,2^5S,6S)-35-fluoro-6-methyl-2^2,7-diaza-1(5,3)-pyrazolo[1,5-a]pyrimidina-3(3,2)-pyridina-2(2,1)-bicyclo[3.1.0]hexana-cyclooctaphan-8-one] showed an IC50 [1] of 1 nM, an IC50 [2] of 1 nM and an IC50 [4] of 2 nM.

In the case of O=C1NC2(CC2)COc2ncc(F)cc2C2(CC2)Nc2ccn3ncc1c3n2 [Example 41, (3′E,4′E)-5′-fluorodispiro[cyclopropane-1,3′-5-oxa-2,8-diaza-1(5,3)-pyrazolo[1,5-a]pyrimidina-4(3,2)-pyridina-cyclononaphane-7′,1″-cyclopropan]-9′-one], the IC50 [1] is reported as 1 nM, the IC50 [2] is reported as 1 nM and the IC50 [3] is reported as 30 nM. It also gave an IC50 [4] of 26 nM.

For C[C@@H]1COc2ncc(F)cc2C2(CC2)N(C)c2ccc3ncc(n3n2)C(=O)N1 [Example 47, (7′R,E)-5′-fluoro-2′,7′-dimethylspiro-[cyclopropane-1,3′-5-oxa-2,8-diaza-1(6,3)-imidazo[1,2-b]pyridazina-4(3,2)-pyridina-cyclononaphan]-9′-one], the IC50 [1] was 2 nM, the IC50 [3] was 26 nM and the IC50 [4] was 23 nM.

C[C@@H]1COc2ncc(F)cc2C2(CC2)N(C)c2ccn3ncc(c3n2)C(=O)N1 [Example 48, (R,3′E,4′E)-5′-fluoro-2′,7′-dimethylspiro-[cyclopropane-1,3′-5-oxa-2,8-diaza-1(5,3)-pyrazolo[1,5-a]pyrimidina-4(3,2)-pyridina-cyclononaphan]-9′-one] showed an IC50 [1] of 2 nM, an IC50 [3] of 14 nM and an IC50 [4] of 12 nM.

C[C@@H]1CCc2ncc(F)cc2C2(CC2)N(C)c2ccn3ncc(c3n2)C(=O)N1 [Example 51, (R,3′E,4′E)-5′-fluoro-2′,7′-dimethylspiro-[cyclopropane-1,3′-2,8-diaza-1(5,3)-pyrazolo[1,5-a]pyrimidina-4(3,2)-pyridina-cyclononaphan]-9′-one] was tested, and the IC50 [1] was 3 nM, the IC50 [3] was 72 nM and the IC50 [4] was 44 nM.

Work on CN1c2ccn3ncc(c3n2)C(=O)NCCOc2ccc(F)cc2C12CC2 [Example 54, (3′E,4′E)-5′-fluoro-2′-methylspiro-[cyclopropane-1,3′-5-oxa-2,8-diaza-1(5,3)-pyrazolo[1,5-a]pyrimidina-4(1,2)-benzenacyclononaphan]-9′-one] yielded an IC50 [1] of 9 nM, an IC50 [2] of 13 nM and an IC50 [4] of 62 nM.

CCN1c2ccn3ncc(c3n2)C(=O)N[C@H](C)COc2ccc(F)cc2C12CC2 [Example 59, (R,3′E,4′E)-2′-ethyl-5′-fluoro-7′-methyl-spiro[cyclopropane-1,3′-5-oxa-2,8-diaza-1(5,3)-pyrazolo[1,5-a]pyrimidina-4(1,2)-benzenacyclononaphan]-9′-one] showed an IC50 [1] of 1 nM and an IC50 [2] of 17 nM.

Compound CCN1c2ccn3ncc(c3n2)C(=O)NC[C@H](C)Oc2ncc(F)cc2C12CC2 [Example 62, (S,3′E,4′E)-2′-ethyl-5′-fluoro-6′-methylspiro [cyclopropane-1,3′-5-oxa-2,8-diaza-1(5,3)-pyrazolo[1,5-a]pyrimidina-4(3,2)-pyridinacyclononphan]-9′-one] has an IC50 [1] of 13 nM and an IC50 [2] of 46 nM.

In the case of CCN1c2ccn3ncc(c3n2)C(=O)N[C@H](C)COc2ncc(F)cc2C12CC2 [Example 64, (R,3′E,4′E)-2′-ethyl-5′-fluoro-7′-methylspiro [cyclopropane-1,3′-5-oxa-2,8-diaza-1(5,3)-pyrazolo[1,5-a]pyrimidina-4(3,2)-pyridinacyclononaphan]-9′-one], the IC50 [1] is reported as 2 nM, the IC50 [2] is reported as 6 nM and the IC50 [4] is reported as 68 nM.

For O=C1NCCCOc2ncc(F)cc2C2(CC2)Nc2ccn3ncc1c3n2 [Example 67, (3′E,4′E)-5′-fluorospiro[cyclopropane-1,3′-5-oxa-2,9-diaza-1(5,3)-pyrazolo[1,5-a]pyrimidina-4(3,2)-pyridinacyclodecaphan]-10′-one], the IC50 [1] was 10 nM and the IC50 [2] was 23 nM.

CN1c2ccn3ncc(c3n2)C(=O)NC2(CC2)COc2ccc(F)cc2C12CC2 [Example 69, (3′E,4′E)-5′-fluoro-2′-methyldispiro-[cyclopropane-1,3′-5-oxa-2,8-diaza-1(5,3)-pyrazolo[1,5-a]pyrimidina-4(1,2)-benzenacyclononaphane-7′,1″-cyclopropan]-9′-one] gave an IC50 [1] of 1 nM, an IC50 [3] of 1 nM and an IC50 [4] of 4 nM.

O=C1NCCCc2ccc(F)cc2[C@@]23C[C@@H]2CCN3c2ccn3ncc1c3n2 [Example 71, (1^3E,1^4E,2^1R,2^5S)-3^5-fluoro-2^2,7-diaza-1(5,3)-pyrazolo[1,5-a]pyrimidina-2(2,1)-bicyclo[3.1.0]hexana-3(1,2)-benzenacyclo-octaphan-8-one] showed an IC50 [1] of 1 nM, an IC50 [3] of 1 nM and an IC50 [4] of 1 nM.

For O=C1NC2(CCc3ncc(F)cc3[C@@]34C[C@@H]3CCN4c3ccn4ncc1c4n3)CC2 [Example 77, (1′R,3′E,4′E,5′S)-5′-fluorospiro-[cyclopropane-1,6′-2^2,7-diaza-1(5,3)-pyrazolo[1,5-a]pyrimidina-3(3,2)-pyridina-2(2,1)-bicyclo[3.1.0]hexanacyclooctaphan]-8′-one], the IC50 [1] was 1 nM, the IC50 [3] was 1 nM and the IC50 [4] was 1 nM.

With O=C1NC2(CCc3ncc(F)cc3[C@@]34C[C@@H]3CCN4c3ccc4ncc1n4n3)CC2 [Example 78, (1′R,5′S,E)-5′fluorospiro[cyclopropane-1,6′-2^2,7-diaza-1(6,3)-imidazo[1,2-b]pyridazina-3(3,2)-pyridina-2(2,1)-bicyclo [3.1.0]hexanacyclooctaphan]-8′-one] the IC50 [1] was 1 nM, the IC50 [3] was 3 nM and the IC50 [4] was 1 nM.

With CN1c2ccn3ncc(c3n2)C(=O)NC2(CC2)CSc2ncc(F)cc2C12CC2 [Example 86, (3′E,4′E)-5′-fluoro-2′-methyldispiro-[cyclopropane-1,3′-5-thia-2,8-diaza-1(5,3)-pyrazolo[1,5-a]pyrimidina-4(3,2)-pyridina-cyclononaphane-7′,1″-cyclopropan]-9′-one] the IC50 [1] was 1 nM, the IC50 [3] was 1 nM and the IC50 [4] was 1 nM.
